We go through 14 compounds from patent US20050267136A1, “Method of inhibiting dihydrofolate reductase; screening assay for the identification of novel therapeutics and their cellular targets” (McMaster University, priority 2003, published 2005).

Converted amounts (≈) assume the structure as drawn. Read-outs that look alike come from different tables or passages of the source.

The test system of test [1] is E. coli strain MC1061. Nature of the test: Duplicate screen of 1000 Maybridge compounds for growth inhibition. It is filed as cell-based, Escherichia coli. As to conditions: 10 μL of 1 mM compound in 200 μL/well, 36 hours at 37° C., OD 600 nm. Here is the method:
In addition to proof of principle work using well-characterized antibiotics a preliminary screen against a 1000 compound, non-proprietary commercial library from Maybridge (Cornwall, England) was also done. First the identification of compounds with activity against E. coli by screening for inhibition of growth was done. […] To each test well 10 μL of screening compound (1 mM in DMSO) was added and the plate incubated for 36 hours at 37° C. with shaking (150 rpm) before reading the optical density (600 nm). […] The result of this duplicate screen was the identification of 15 compounds with statistically significant antibacterial activity.

Test [2] deals with E. coli strain MC1061. Nature of the test: Retest minimum inhibitory concentration on LB-ST agar. The conditions noted are these: Escherichia coli, MC1061, read-out: Retest Minimum Inhibitory Concentration.
A further test has as its system E. coli MC1061. Nature of the test: Minimum inhibitory concentration determination in LB broth. Type of test: cell-based, Escherichia coli.
Test [3] deals with E. coli CW2553 containing pAK01 and pBAD18-folA (strain EB492). As to conditions: increasing DHFR expression from pBAD18-folA.
In test [4] the target is T1, E. coli DHFR (Escherichia coli, UniProt P0ABQ4).
T1 construct: The gene was cloned lacking a stop codon into NdeI and XhoI digested pET26b to form pET26b-folA; made in house
Nature of the test: DHF reductase activity assay of recombinant E. coli DHFR (decrease of NADPH at 340 nm); primary screen and IC50 determination. Type of test: biochemical. As to conditions: true competitive inhibitor should equal 2.8.

Test [5] concerns the target T1, E. coli DHFR. In words: Determination of kinetic inhibition constants. The conditions noted are these: NADPH 80 μM, dihydrofolate 10 to 300 μM, competitive inhibition. It is filed as biochemical.
The test system of test [6] is E. coli MC1061 clones harboring pGEM7-acrB. Type of test: cell-based, Escherichia coli. The conditions noted are these: from MIC in LB-Str-Amp, relative to E. coli MC1061 containing pGEM7.
The subject of test [7] is MC1061 transformed with the genomic library (the screening pool). It is filed as cell-based, Escherichia coli. The conditions noted are these: LB agar-ST; concentration lethal to MC1061.
For the next test, the system named is E. coli MC1061/pGEM7. In words: microbe, parasite or virus in culture. The conditions noted are these: for MIC: Escherichia coli, MC1061/PGEM7, read-out: MIC, minimum growth inhibitory concentration. Type of test: cell-based, Escherichia coli.
The subject of test [8] is S. cerevisiae DL1 (His, Leu, Ura)/pGAL. Nature of the test: MIC of compounds versus yeast. Type of test: cell-based. As to conditions: Saccharomyces cerevisiae; agar plates, 72 hours, read visually.
Test [9] relates to E. coli MC1061 harboring a multicopy genomic library cloned into pGEM7. Nature of the test: Multicopy suppression selection with the selection pool, Example 5. It is filed as cell-based, Escherichia coli. As to conditions: LB-Str-Amp agar, 10^5 cells.
[10] abbreviates: Escherichia coli, MC1061, 16 hr at 37° C., OD600 less than 0.1, read-out: MIC.
Where [11] appears, read: 16 hr at 37° C., OD600 less than 0.1.

Turning to `Nc1nc(-c2ccc(-n3cccc3)cc2)cc(C(F)(F)F)n1` [BTB14887], in the test on E. coli strain MC1061 [1], the “Growth in Primary Screens, first value of the duplicate” value (“Growth in Primary Screens, first value” for short) is listed as 37% and the “Growth in Primary Screens, second value of the duplicate” value (“Growth in Primary Screens, second value” for short) was determined as 30%. For the same compound, the MIC with E. coli strain MC1061 [2] turned out to be 125 µg/mL (≈ 411 µM).

As to `Cc1ccc(Sc2cccc3nc(N)nc(N)c23)cc1` [Compound 1], in the test with E. coli MC1061 (setting [10]), the MIC was found to be 8 µg/mL (≈ 28.3 µM).

As to `Nc1nc(N)c2c(Sc3ccc(Cl)cc3)cccc2n1` [Compound 2], the MIC against E. coli MC1061 (setting [11]) is 4.0 µg/mL (≈ 13.2 µM); with E. coli MC1061 (setting [10]) it was 4 µg/mL (≈ 13.2 µM).

Consider `Nc1nc(N)c2c(Oc3ccc(F)cc3)cccc2n1` [Compound 3], for which the MIC in the test with E. coli MC1061 (setting [10]) came out at 16 µg/mL (≈ 59.2 µM).

For `Cc1ccc(Oc2cccc3nc(N)nc(N)c23)cc1` [Compound 4], the MIC was determined as 4.0 µg/mL (≈ 15 µM) in the test on E. coli MC1061 (setting [11]) and 4 µg/mL (≈ 15 µM) in the test with E. coli MC1061 (setting [10]). In test [3], the “dependence of the MIC on arabinose (inducer) concentration” value is recorded as “demonstrated an inducer dependence”.

For `CC1CCc2c(N)nc(N)nc2C1` (stereo not drawn) [Compound 6], the “IR, IC50 ratio (IC50 in the presence of 100 μM DHF) / (IC50 in the presence of 30 μM DHF)” value on E. coli DHFR [4] was 2.3. Also, the MIC in the test with E. coli MC1061 (setting [10]) stood at 64 µg/mL (≈ 359 µM). The Ki at E. coli DHFR [5] is 1100 nM. Also, in test [6], the “fold suppression by pGEM7-acrB” value is listed as 4 fold.

`N[C@@H]1CON=C1O` [Cycloserine, D-cycloserine]: the “growth inhibitory concentration to which clones isolated from the screening pool were resistant” value in [7] was 160 µg/mL. Moreover, the MIC in the test on E. coli MC1061/pGEM7 was found to be 80 µg/mL (≈ 784 µM).

Regarding `OC(Cn1cncn1)(Cn1cncn1)c1ccc(F)cc1F` [Fluconazole], in [8], the MIC came to 32 µg/mL.

On to `C[C@@H]1O[C@@H]1P(=O)(O)O` [Fosfomycin], for which the “growth inhibitory concentration to which clones isolated from the screening pool were resistant” value in [7] was 320 µg/mL. Besides, in the test on E. coli MC1061/pGEM7, the MIC was 80 µg/mL (≈ 579 µM).

`O=C(Oc1c(Cl)cc(Cl)c2cccnc12)c1cccs1` [RH00852]: in the test with E. coli strain MC1061 [1], the “Growth in Primary Screens, first value” value turned out to be 2.7% and the “Growth in Primary Screens, second value” value was found to be 2.8%. Also, the MIC in the test on E. coli strain MC1061 [2] amounted to 16 µg/mL (≈ 49.4 µM).

As for `CSC(=N)NC(=S)Nc1cccc(Cl)c1` [RJF01047], in the test with E. coli strain MC1061 [1], the “Growth in Primary Screens, first value” value amounted to 6.0% and the “Growth in Primary Screens, second value” value stood at 12%. In addition, the MIC in the test on E. coli strain MC1061 [2] amounted to 125 µg/mL (≈ 481 µM).

Consider `N#CC(C#N)=NNc1cc(C(F)(F)F)cc(C(F)(F)F)c1` [SEW04978], for which, in the test on E. coli strain MC1061 [1], the “Growth in Primary Screens, first value” value is given as 0.2% and the “Growth in Primary Screens, second value” value is reported as 0.02%. Moreover, the “growth inhibitory concentration to which clones isolated from the screening pool were resistant” value in test [7] worked out at 64 µg/mL. Besides, in the test with E. coli strain MC1061 [2], the MIC was 32 µg/mL (≈ 105 µM).

Take `Clc1ccc(Cc2n[nH]cc2Sc2ccc(Cl)cc2)cc1` [SPB04137]: in the test with E. coli strain MC1061 [1], the “Growth in Primary Screens, first value” value turned out to be 2.3% and the “Growth in Primary Screens, second value” value amounted to 2.1%. The MIC in the test on E. coli strain MC1061 [2] is 500 µg/mL (≈ 1490 µM).

In the case of `COc1cc(Cc2cnc(N)nc2N)cc(OC)c1OC` [Trimethoprim], the MIC in the test on E. coli MC1061/pGEM7 came out at 0.078 µg/mL (≈ 0.269 µM); with E. coli MC1061 (setting [10]), 0.03 µg/mL (≈ 0.103 µM). Besides, in the test with E. coli MC1061/pGEM7 (LB agar containing ampicillin (50 μg/mL) and streptomycin (50 μg/mL)), the “MIC, minimum growth inhibitory concentration” value turned out to be 0.078 µg/mL (≈ 0.269 µM). The “concentration at which suppressor clones were evident” value in test [9] was 0.64 µg/mL.

As a reminder, the Ki is the equilibrium dissociation constant of an inhibitor or competing ligand from its target. A low value points to higher affinity.
